Test results as given in patent US20140057895A1, “INDAZOLE- AND PYRROLOPYRIDINE-DERIVATIVE AND PHARMACEUTICAL USE THEREOF” (priority 2011, published 2014).

Columns and labels:
5-HT4 receptor = target: T1, 5-HT4 receptor (Cavia porcellus, UniProt O70528); experiment: Test Example 1: Serotonin 4 (5-HT4) receptor binding assay, [3H]-GR113808, guinea pig striatum membranes (Table 96); settings: Guinea pig 5-HT4 receptor binding assay, [3H]-GR113808, striatum membranes; mean value of each group
T1 construct: striatum was isolated which was cryopreserved at −80° C. until use; from tissue; host or cells: guinea pig (Slc-Hartley) striatum membranes
Method: The 5-HT4 receptor binding assay and preparations of receptor membrane preparations herein were carried out according to a method of Grossman et al. [see, British J. Pharmacol., (1993) 109, 618].
Slc-Hartley guinea pigs (body weight 300 g to 400 g) were decapitated to remove brain rapidly, and striatum was isolated which was cryopreserved at −80° C. until use. To the obtained tissues were added fifteen fold of Hepes buffer (50 mM, pH 7.4, 4° C.), and the mixture was homogenized by Teflon (trademark) homogenizer and centrifuged at 48,000×g (4° C.) for 15 minutes. To the resulting precipitate was added Hepes buffer (1 ml) to 30 mg by wet weight of tissues, and the mixture was suspended to give receptor membrane preparations.
To an assay tube were added 0.1 nM [^3H]-GR113808 {chemical name: [1-[2-(methylsulfonylamino)ethyl]-4-piperidinyl]methyl 1-methylindole-3-carboxylate}, receptor membrane preparations, and Hepes buffer (50 mM, pH 7.4, 4° C., 1 ml) containing test compounds or 30 μM serotonin; and the mixture was incubated at 37° C. for 30 minutes. On quenching the reaction, the mixture was rapidly filtered on whatman GF/B filter, which was presoaked in 0.1% polyethyleneimine for 1 hour, by using Brandel cell Harvester, and washed with ice-cooled 50 mM Tris-HCl (pH 7.7, 4 ml) three times. To the filter after filtration was added a liquid scintillator (Ecoscint), and then a radioactivity was determined by a liquid scintillation counter.
50% Inhibition concentrations (IC50) were determined from inhibition rates of test compounds to specific bindings which were obtained by subtracting nonspecific bindings from total binding amounts of [^3H]-GR113808.
(§1) In the following table, the compounds used in the test are shown in numbers which correspond to the Example numbers above where the preparations of the compounds are described.

human 5-HT4b receptor = target: T2, human 5-HT4b receptor (Homo sapiens, UniProt Q13639); experiment: Test Example 2: Serotonin 4 (5-HT4) receptor agonist activity assay, cAMP HTRF in CHO cells (Table 97); assay type: cell-based; settings: cAMP in CHO cells expressing human 5-HT4b receptor, mean value; for Emax: 0.25 h, intrinsic activity, maximal activity of 5-HT defined as 100%, read-out: IA (%); for EC50: concentration showing 50% of IA
T2 construct: expressed in transfected cells; host or cells: CHO cells (G418 selection)
Method: The cAMP measurement test used herein was carried out by using CISBIO HTRF (trademark) cAMP Hirange kit according to the manufacturer's instructions attached therewith.
CHO cells expressing human 5-HT4b receptor were incubated in Medium 1 [DMEM/1% NEAA, 1% penicillin/streptomycin (P/S), 0.2 mg/mL GENETICIN (G418), 10% FBS] at 37° C. under 5% CO2 condition. Then, the cells were put into Medium 2 (DMEM/10000 cut FBS, G-418, P/S, NEAA) for 1 to 2 hours, and collected by treating with trypsin containing EDTA. The collected cells were suspended in Assay Buffer 1 [100 mM Hanks/HEPES buffer (pH 7.4)], the suspended cells were mixed with the testing compound on 384-well plates, and the cells were incubated at 31° C. for 15 minutes. To the cells were added cAMP-cryptate solution and cAMP-d2 solution, and they were incubated at room temperature for 1 hour. Then, time-resolved fluorescence was measured by En Vision (excitation wavelength: 330 nm, fluorescence wavelength: 620/665 nm). An intrinsic activity of the compound [IA (%)] and a concentration showing 50% of IA [EC50 (nM)] were calculated from the obtained results. In particular, the intrinsic activity (IA) was calculated on the basis of the maximal activity of 5-HT (measured from 10^−11 M to 10^−7 M) defined as 100%.
as §1

T2 sequence (Q13639 whole entry): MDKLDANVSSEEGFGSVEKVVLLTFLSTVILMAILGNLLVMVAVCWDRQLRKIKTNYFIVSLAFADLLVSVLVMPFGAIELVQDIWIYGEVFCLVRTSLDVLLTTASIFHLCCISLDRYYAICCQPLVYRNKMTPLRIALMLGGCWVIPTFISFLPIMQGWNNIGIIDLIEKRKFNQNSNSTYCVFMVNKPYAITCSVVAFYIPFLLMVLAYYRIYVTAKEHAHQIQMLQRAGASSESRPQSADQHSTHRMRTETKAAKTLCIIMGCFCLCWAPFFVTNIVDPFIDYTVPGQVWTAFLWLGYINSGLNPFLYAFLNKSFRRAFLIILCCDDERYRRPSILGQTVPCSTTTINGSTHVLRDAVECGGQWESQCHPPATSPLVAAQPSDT
T1 sequence (O70528 whole entry): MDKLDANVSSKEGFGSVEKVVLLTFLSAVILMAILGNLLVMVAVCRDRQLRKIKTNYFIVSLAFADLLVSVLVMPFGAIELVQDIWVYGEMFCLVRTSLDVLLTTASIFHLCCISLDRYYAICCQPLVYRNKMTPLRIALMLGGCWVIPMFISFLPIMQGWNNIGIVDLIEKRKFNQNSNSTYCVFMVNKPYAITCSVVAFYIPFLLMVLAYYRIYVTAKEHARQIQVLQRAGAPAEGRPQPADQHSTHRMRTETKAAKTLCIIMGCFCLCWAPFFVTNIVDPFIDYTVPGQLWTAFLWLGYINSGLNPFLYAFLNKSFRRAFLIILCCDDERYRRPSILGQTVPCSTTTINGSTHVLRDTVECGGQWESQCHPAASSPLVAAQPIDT

Row | Compound | IC50 (5-HT4 receptor) [nM] | Emax (human 5-HT4b receptor) [%] | EC50 (human 5-HT4b receptor) [nM]
1 | CC(C)c1nn(-c2noc(C3CCN(C4CCN(C(=O)CO)CC4)CC3)n2)c2c(F)cccc12 [Example 242, 1-(4-{3-[7-fluoro-3-(propan-2-yl)-1H-indazol-1-yl]-1,2,4-oxadiazol-5-yl}-1,4′-bipiperidin-1′-yl)-2-hydroxyethanone] | < 20 | 88 | 2.2
2 | CC(=O)N1CCC(N2CCC(c3nc(-n4nc(C(C)C)c5cccc(F)c54)no3)CC2)CC1.Cl [Example 232, 1-(4-{3-[7-fluoro-3-(propan-2-yl)-1H-indazol-1-yl]-1,2,4-oxadiazol-5-yl}-1,4′-bipiperidin-1′-yl)ethanone hydrochloride] | < 20 | 95 | 2.6
